Measurements: ChEMBL document CHEMBL5727627, “Tetrahydropyrimidodiazepine and dihydropyridodiazepine compounds for treating pain and pain related conditions” (2020)
pKi: −log10 of the molar value.

Biological target: Voltage-dependent calcium channel subunit alpha-2/delta-1 (Homo sapiens, UniProt P54289)
Test: Binding Assay: α2δ-1: Binding Assay to Human α2δ-1 Subunit of Cav2.2 Calcium Channel.Human α2δ-1 enriched membranes (2.5 μg) were incubated with 15 nM of radiolabeled [3H]-Gabapentin in assay buffer containing Hepes-KOH 10 mM, pH 7.4.NSB (non specific binding) was measured by adding 10 μM pregabalin. After 60 min incubation at 27° C., binding reaction was terminated by filtering through Multiscreen GF/C (Millipore) presoaked in 0.5% polyethyleneimine in Vacuum Manifold Station, followed by 3 washes with ice-cold filtration buffer containing 50 mM Tris-HCl, pH 7.4.Filter plates were dried at 60° C. for 1 hour and 30 μl of scintillation cocktail were added to each well before radioactivity reading.Readings were performed in a Trilux 1450 Microbeta radioactive counter (Perkin Elmer).

Sequence of Voltage-dependent calcium channel subunit alpha-2/delta-1 (P54289 25-956 limits assumed): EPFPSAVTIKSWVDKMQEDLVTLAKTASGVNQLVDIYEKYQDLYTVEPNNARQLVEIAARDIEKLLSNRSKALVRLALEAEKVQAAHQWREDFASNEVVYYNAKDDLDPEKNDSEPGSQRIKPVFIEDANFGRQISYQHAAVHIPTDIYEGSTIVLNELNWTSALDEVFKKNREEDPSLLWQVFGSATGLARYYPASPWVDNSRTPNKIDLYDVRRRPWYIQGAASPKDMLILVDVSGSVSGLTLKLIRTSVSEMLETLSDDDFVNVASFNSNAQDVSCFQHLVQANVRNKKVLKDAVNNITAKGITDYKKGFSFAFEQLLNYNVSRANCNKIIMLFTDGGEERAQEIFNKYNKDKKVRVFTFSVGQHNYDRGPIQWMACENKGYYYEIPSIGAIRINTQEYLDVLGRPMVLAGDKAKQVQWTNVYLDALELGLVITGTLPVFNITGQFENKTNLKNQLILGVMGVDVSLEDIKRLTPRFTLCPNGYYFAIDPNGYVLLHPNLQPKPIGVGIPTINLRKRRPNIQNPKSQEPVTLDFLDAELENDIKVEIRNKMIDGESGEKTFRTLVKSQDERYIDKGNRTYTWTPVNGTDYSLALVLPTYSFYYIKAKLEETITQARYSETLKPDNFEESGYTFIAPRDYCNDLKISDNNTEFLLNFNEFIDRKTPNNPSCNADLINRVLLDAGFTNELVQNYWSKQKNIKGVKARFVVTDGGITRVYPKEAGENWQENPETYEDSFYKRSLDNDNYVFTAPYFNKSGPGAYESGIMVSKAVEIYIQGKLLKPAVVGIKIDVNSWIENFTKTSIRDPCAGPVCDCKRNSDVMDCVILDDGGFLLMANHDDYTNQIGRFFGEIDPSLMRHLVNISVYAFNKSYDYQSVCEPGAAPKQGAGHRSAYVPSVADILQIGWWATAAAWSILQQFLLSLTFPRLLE
Sequence of Voltage-dependent calcium channel subunit alpha-2/delta-1 (P54289 957-1103 limits assumed): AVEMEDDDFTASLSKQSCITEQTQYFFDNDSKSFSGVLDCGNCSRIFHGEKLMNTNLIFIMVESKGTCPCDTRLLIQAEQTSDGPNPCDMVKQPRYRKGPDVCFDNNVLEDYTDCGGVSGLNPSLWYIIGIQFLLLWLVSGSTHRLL

Row | SMILES | pKi
1 | CSc1ncc2c(n1)N(C)CCN(c1cccc(OC(CCN(CCF)C(=O)OC(C)(C)C)c3cccs3)c1)C2=O (stereo not given) | < 5.52
2 | CNCC[C@H](Oc1cc(F)ccc1CN1CCN(C)c2nc(OC)ncc2C1=O)c1cccs1 | < 5.52
3 | CSc1ncc2c(n1)N(C)CCN(c1cccc(-c3nnc(CN(C)C(=O)OC(C)(C)C)o3)c1)C2=O | < 5.52
4 | CCNc1cc2c(cn1)C(=O)N(c1cccc(COC(CCN(C)C(=O)OC(C)(C)C)c3ccccc3)c1)CCN2C (stereo not given) | < 5.52
5 | CCNc1cc2c(cn1)C(=O)N(c1cccc(OC(CCN(C)C(=O)OC(C)(C)C)c3ccccc3)c1)CCN2C (stereo not given) | < 5.52
